The source of these data is patent US4863902A, “Treatment of cancer” (Wakunaga Seiyaku Kabushiki Kaisha, priority 1985, dated 1989).

The subject of experiment [1] is mouse ovarian tumor M5076. The experiment is described as follows: Tumor weight of solid tumor of mouse ovarian tumor in BDF1 mice. The experiment is classed as in vivo. To be noted: for Tumor weight (day 1 = 100): Table 9, cisplatin 5 mg/Kg, hEGF, [Leu^21 ]-hEGF or hEGF-II 100 μg/Kg subcutaneous, average ± standard error. The procedure:
BDF1 male mice were employed. The feeding conditions were the same as in Experimental Example 1.
Mouse ovarian tumor M5076 was transplanted subcutaneously at the axialla of mouse in 1-2×10^6 cells per mouse. 12 days after transplantation, the size of tumor was measured according to the same method as in Experimental Example 1 (Colon 26) and the tumor weight was calculated.
The grouping operation on initiation of Experiments was conducted in the same manner as in Experimental Example 1. The compounds were administered in the same manner as in Experimental Example 9.
The experiment was carried out in the samme manner as in Experimental Examples 1, 7 and as in Experimental Example 17 for others.

Experiment [2] relates to Colon adenocarcinoma 38 (mouse colon adenocarcinoma). The experiment can be described thus: Tumor weight of transplanted Colon adenocarcinoma 38 in C57BL/6 mice. The experiment is classed as in vivo. To be noted: for tumor growth inhibiting effect, same experiment as Experimental Example 19: used in place of 5-FU in combination with FGF; for antitumor effect of (a) + (b) (quantity not headed; method of Experimental Example 4): Table 21. On the procedure: Colon adenocarcinoma 38 (mouse colon adenocarcinoma) was minced into pieces and about 0.1 to 0.2 ml thereof was transplanted subcutaneously on the right side of mouse abdomen by a cell transplanting needle (trocker). Eleven days after transplantation, the size of tumor, namely longer diameter (a mm) and shorter diameter (b mm) of tumor were measured and the tumor weight was calculated according to the formula shown below [Instruction 14 (NCI) 1980].
Tumor weight (mg)=ab^2 /2
In the Table, days indicate the experimental days with the day of compound administration being as the day 1, and the tumor weight immediately before administration of compound of day 1 is made 100. The respective values show the average value ± standard error of case numbers of 10 to 20, in the Table, the marks of (*), * and *** indicate the statistical significance difference of the combined administration group relative to the 5-FU single administration group (the definition of P is as defined above).

[3] abbreviates: Table 12, day 4 after compound administration, weight before administration = 100, Tegafur 400, 5-FU 150, Mitomycin-C 5, Cisplatin 5 mg/Kg, hIGF-II 50 μg/Kg subcutaneous, average ± standard error of 8-10 mice.
[4] abbreviates: Table 13, same method as Experimental Example 20 (day 4), Tegafur 400, Mitomycin-C 5, Adriamycin 10, Cisplatin 5 mg/Kg, Insulin 50 m μg/Kg subcutaneous.
Where [5] appears, read: Table 14, hTGFα 100 μg/10 ml/Kg with 5-FU, Tegafur, Mitomycin-C, Adriamycin or Cisplatin, as described for Table 12.
Where [6] appears, read: Table 15, day 4 after compound administration, hTGFβ and hEGF 100 μg/Kg with each compound having antitumor action.
Setting [7] is: (a) Adriamycin, Mixed injection.
[8] abbreviates: (a) Adriamycin, Separate injection.
Setting [9] is: (a) Cisplatin, Separate injection.
Setting [10] is: (a) Tegafur, Separate injection.

As for `N.N.[Cl][Pt][Cl]` [Cisplatin, cisplatin], the “Tumor weight (day 1 = 100)” value was found to be 126.4 ± 9.0 in experiment [1] (day 2); 125.49 ± 8.3 in experiment [1] (day 3); 136.9 ± 5.2 in experiment [1] (day 4); 143.6 ± 14.5 in experiment [1] (day 5); 192.0 ± 20.6 in experiment [1] (day 6). Further, the “Tumor weight ratio(%)” value worked out at 145.6 ± 9.1% in experiment [2] (setting [3]), 145.6 ± 9.1% in experiment [2] (setting [4]), 145.6 ± 9.1% in experiment [2] (setting [5]) and 139.8 ± 9.9% in experiment [2] (setting [6]). Besides, the “tumor growth inhibiting effect, same experiment as Experimental Example 19” value (“tumor growth inhibiting effect” for short) in experiment [2] was “the same results”.
In the case of `O=P1(N(CCCl)CCCl)NCCCO1` (stereo not shown) [Cyclophosphamide, cyclophosphamide], the “Tumor weight (day 1 = 100)” value in experiment [2] (Table 7, day 2, cyclophosphamide 200 mg/Kg, hEGF 100 μg/Kg subcutaneous on day 1 and day 3, average ± standard error of 8 mice) was determined as 145.2 ± 18.2; in experiment [2] (Table 7, day 3, cyclophosphamide 200 mg/Kg, hEGF 100 μg/Kg subcutaneous on day 1 and day 3, average ± standard error of 8 mice) it was 147.6 ± 13.7; in experiment [2] (Table 7, day 4, cyclophosphamide 200 mg/Kg, hEGF 100 μg/Kg subcutaneous on day 1 and day 3, average ± standard error of 8 mice), 102.4 ± 8.6; in experiment [2] (Table 7, day 5, cyclophosphamide 200 mg/Kg, hEGF 100 μg/Kg subcutaneous on day 1 and day 3, average ± standard error of 8 mice), 92.2 ± 5.1; in experiment [2] (Table 7, day 6, cyclophosphamide 200 mg/Kg, hEGF 100 μg/Kg subcutaneous on day 1 and day 3, average ± standard error of 8 mice), 108.5 ± 19.6; in experiment [2] (Table 7, day 7, cyclophosphamide 200 mg/Kg, hEGF 100 μg/Kg subcutaneous on day 1 and day 3, average ± standard error of 8 mice) it was 110.9 ± 21.3. Moreover, the “Tumor weight ratio(%)” value in experiment [2] (setting [6]) worked out at 90.6 ± 7.6%. Further, the “tumor growth inhibiting effect” value in experiment [2] is “the same results”.
On to `CO[C@@]12[C@H](COC(N)=O)C3=C(C(=O)C(C)=C(N)C3=O)N1C[C@@H]1N[C@@H]12` [MMC, mitomycin C], for which the “Tumor weight (day 1 = 100)” value in experiment [2] (Table 8, day 2, MMC 5 mg/Kg, hEGF, hEGF-II or [Leu^21 ]-hEGF 100 μg/Kg subcutaneous on day 1 and day 5, average ± standard error of 6 mice) is listed as 130.8 ± 8.5; in experiment [2] (Table 8, day 3, MMC 5 mg/Kg, hEGF, hEGF-II or [Leu^21 ]-hEGF 100 μg/Kg subcutaneous on day 1 and day 5, average ± standard error of 6 mice), 106.1 ± 9.4; in experiment [2] (Table 8, day 4, MMC 5 mg/Kg, hEGF, hEGF-II or [Leu^21 ]-hEGF 100 μg/Kg subcutaneous on day 1 and day 5, average ± standard error of 6 mice), 95.8 ± 5.5; in experiment [2] (Table 8, day 5, MMC 5 mg/Kg, hEGF, hEGF-II or [Leu^21 ]-hEGF 100 μg/Kg subcutaneous on day 1 and day 5, average ± standard error of 6 mice), 98.6 ± 3.9; in experiment [2] (Table 8, day 6, MMC 5 mg/Kg, hEGF, hEGF-II or [Leu^21 ]-hEGF 100 μg/Kg subcutaneous on day 1 and day 5, average ± standard error of 6 mice), 160.7 ± 10.9; in experiment [2] (Table 8, day 7, MMC 5 mg/Kg, hEGF, hEGF-II or [Leu^21 ]-hEGF 100 μg/Kg subcutaneous on day 1 and day 5, average ± standard error of 6 mice), 150.8 ± 15.9. Besides, the “Tumor weight (day 1 = 100)” value is reported as 263.6 ± 30.8 in experiment [2] (Table 8, day 8, MMC 5 mg/Kg, hEGF, hEGF-II or [Leu^21 ]-hEGF 100 μg/Kg subcutaneous on day 1 and day 5, average ± standard error of 6 mice); 308.7 ± 54.0 in experiment [2] (Table 8, day 9, MMC 5 mg/Kg, hEGF, hEGF-II or [Leu^21 ]-hEGF 100 μg/Kg subcutaneous on day 1 and day 5, average ± standard error of 6 mice). In addition, the “Tumor weight ratio(%)” value in experiment [2] (setting [3]) is given as 95.8 ± 5.5%; in experiment [2] (setting [4]) it was 95.8 ± 5.5%; in experiment [2] (setting [5]), 95.8 ± 5.5%; in experiment [2] (setting [6]) it was 101.1 ± 8.3%. Also, the “tumor growth inhibiting effect” value in experiment [2] is “the same results”.
Regarding `O=c1[nH]c(=O)n(C2CCCO2)cc1F` (stereo not shown) [Tegafur, 1-(2-tetrahydrofuryl)-5-fluorouracil], the “Tumor weight (day 1 = 100)” value stood at 89.0 ± 10.5 in experiment [2] (Table 6, day 2, Tegafur 400 mg/Kg, hEGF 100 μg/Kg subcutaneous on day 1 and day 4, average ± standard error of 7 mice); 102.1 ± 13.5 in experiment [2] (Table 6, day 3, Tegafur 400 mg/Kg, hEGF 100 μg/Kg subcutaneous on day 1 and day 4, average ± standard error of 7 mice); 105.5 ± 18.4 in experiment [2] (Table 6, day 4, Tegafur 400 mg/Kg, hEGF 100 μg/Kg subcutaneous on day 1 and day 4, average ± standard error of 7 mice); 104.2 ± 22.6 in experiment [2] (Table 6, day 5, Tegafur 400 mg/Kg, hEGF 100 μg/Kg subcutaneous on day 1 and day 4, average ± standard error of 7 mice); 94.5 ± 16.9 in experiment [2] (Table 6, day 6, Tegafur 400 mg/Kg, hEGF 100 μg/Kg subcutaneous on day 1 and day 4, average ± standard error of 7 mice); 131.4 ± 23.3 in experiment [2] (Table 6, day 7, Tegafur 400 mg/Kg, hEGF 100 μg/Kg subcutaneous on day 1 and day 4, average ± standard error of 7 mice). For the same compound, the “Tumor weight (day 1 = 100)” value in experiment [2] (Table 6, day 8, Tegafur 400 mg/Kg, hEGF 100 μg/Kg subcutaneous on day 1 and day 4, average ± standard error of 7 mice) amounted to 143.7 ± 20.6. Besides, the “Tumor weight ratio(%)” value in experiment [2] (setting [3]) is given as 95.2 ± 15.4%; in experiment [2] (setting [4]), 95.2 ± 15.4%; in experiment [2] (setting [5]) it was 95.2 ± 15.4%; in experiment [2] (setting [6]) it was 118.0 ± 9.8%; in experiment [2] (Table 16, day 4 after administration, Tegafur in place of 5-FU, FGF as in Experimental Example 19), 103.1 ± 13.1%; in experiment [2] (Table 17, day 4 after compound administration, Tegafur 400 mg/Kg, hEGF, hEGF-II, [Leu^21 ]-hEGF each 100 μg/Kg, RA 30 mg/Kg subcutaneous), 90.6 ± 11.5%.
For Insulin, the “antitumor effect of (a) + (b) (quantity not headed; method of Experimental Example 4)” value in experiment [2] (setting [7]) turned out to be 110.2; in experiment [2] (setting [8]), 121.1; in experiment [2] ((a) Cisplatin, Mixed injection), 105.6; in experiment [2] (setting [9]) it was 110.3; in experiment [2] ((a) Tegafur, Mixed injection), 58.9; in experiment [2] (setting [10]), 48.1.
Take “TGFα: human transforming growth factor α”: the “antitumor effect of (a) + (b) (quantity not headed; method of Experimental Example 4)” value in experiment [2] (setting [7]) came out at 98.4; in experiment [2] (setting [8]), 92.6; in experiment [2] ((a) Cisplatin, Mixed injection) it was 80.4; in experiment [2] (setting [9]) it was 80.1; in experiment [2] ((a) Tegafur, Mixed injection), 34.3; in experiment [2] (setting [10]), 40.6.
In the case of “[Leu^21 ]-hEGF: derivative of hEGF with the 21st methionine from the N-terminal substituted with leucine (NSDSECPLSHDGYCLHDGVCLYIEALDKYACNCVVGYIGERCQYRDLKWWELR; not fully specified; Epidermal growth factor; UniProt P01133 971-1023, looked up, variant M21L)”, in experiment [1] (used together with mytomycin C in place of cisplatin), the “antitumor effect potentiation, same experiment as Experimental Example 17” value is “the same results”. Besides, the “antitumor effect of (a) + (b) (quantity not headed; method of Experimental Example 4)” value in experiment [2] (setting [7]) worked out at 99.6; in experiment [2] (setting [8]), 97.8; in experiment [2] ((a) Cisplatin, Mixed injection) it was 90.4; in experiment [2] (setting [9]), 100.1; in experiment [2] ((a) Tegafur, Mixed injection), 48.1; in experiment [2] (setting [10]), 50.3. Also, in experiment [2] (used in place of hEGF in combination with 5-FU), the “tumor cell growth inhibition, same experiment as Experimental Example 4” value is “the same results”. Besides, the “tumor cell growth inhibition, same experiment as Experimental Example 14” value in experiment [2] (used in place of hEGF in combination with Tegafur) was “the same results”. In addition, the “antitumor action potentiating effect, same experiment as Experimental Example 9” value in experiment [2] (used in place of hEGF in combination with cisplatin) is reported as “the same results”. In experiment [2] (used in place of hEGF in combination with cyclophosphamide), the “tumor cell growth inhibiting effect, same experiment as Experimental Example 15” value was “the same results”.
